From patent publication US9480688B2, “Pheromone compositions and their use to modify behavior in different vertebrate species” (priority 2011, dated 2016)

Columns and labels:
barking/jumping dogs = assay: Aerosol spray test on barking/jumping dogs in a kennel; assay type: in vivo, dog; settings: for % Effective (no barking/jumping within 1 minute): 6 dogs
Method: An aerosol spray composition comprising Androstenone solution was prepared in accordance with Example 1, but was then diluted in isopropyl alcohol to obtain a 1:1,000 dilution of the original concentration. The purpose of the dilution was to mask the odor of the Androstenone, which can be smelled by humans at high concentrations. The spray solution was placed in a metal aerosol can pressurized with propane. A noise making device was also added to the aerosol can. The propellant, when forced through small holes, caused a sound that exceeded 70 decibels.
The efficacy of an aerosol spray composition containing Androstenone was tested in a commercial research facility housing a large number of dogs. A designated person walked the aisles of the kennel with a calm dog on a leash in order to identify those dogs that met the criteria of barking/jumping. The calm dog on the leash was walked in the center aisle between kennels and also sat outside the kennels. To qualify as a test subject, a dog had to repeatedly jump and bark while the calm dot and the person were in the aisle. A total of 15 dogs were chosen as test subjects.
The dogs were separated into two treatment groups. […] The dogs in treatment group #2 were treated, when observed to be engaging in barking/jumping behavior, with a loud spray canister to which the diluted spray composition containing Androstenone had been added. The test period was for 1 minute.

anxious dogs = assay: Heart rate of anxious dogs after Androstenone spray (telemetry); assay type: in vivo, dog; settings: four anxious dogs, 10 minutes following spray with about 0.1 μg/mL Androstenone in isopropyl alcohol
Method: A study was conducted to determine whether dogs' heart rate increased following application with an aerosol spray containing Androstenone.
An aerosol spray was prepared which contained about 0.1 μg/mL of Androstenone and isopropyl alcohol using the formulation provided in Example 1.
Four dogs determined to be “anxious” were fit with telemetry jackets and transmitters in order to continually monitor heart rate. Dot heart rates were measured for 10 minutes before treatment, 10 minutes following treatment with a control spray (isopropyl alcohol only), and 10 minutes following treatment with the test spray containing Androstenone and isopropyl alcohol.

head shy horses = assay: Aerosol spray test on head shy horses, scored 1 through 5; assay type: in vivo, horse; settings: for Did not work / Partially worked / Worked well: % of horses
Method: The spray solution was placed in a pressurized metal aerosol can. In one group of aerosol cans, a noise making device was also added to the aerosol can. The propellant, when forced through small holes upon pressing the nozzle, caused a sound that exceeded 70 decibels. In a second group of aerosol cans, the noise making device was not added to the can, such that when the spray composition was pumped, no noise was made.
The efficacy of an aerosol spray composition containing Androstenone was tested using thirteen adult horses, all of which were enrolled in this study after being evaluated and categorized as head shy and hard to handle (i.e., observed to move their heads away from the handler when the handler attempted to touch their heads with his hand or a halter).
The thirteen horses were sorted into two treatment groups. One group (Group 1) of 10 horses received the Androstenone spray composition outlined in Table 4 and control (CON isopropyl alcohol) with noise (n=10), while the second group (Group 2) received the Androstenone spray and control without noise (n=3).
In each group, the control composition was administered to the horses first and then the Androstenone spray was administered to the horses the following day immediately before the handler attempted to touch their ears and heads. The horses' behavior was then recorded and evaluated after each administration. The horses were given a numerical score of 1 through 5.

weaning foals = assay: Ointment test on weaning foals, behavioral observations; assay type: in vivo, horse
Method: A total of 20 foals divided into two groups (Group A, n=10; Group B, n=10) were weaned in pens of similar size and at the same time of the day (9 am), and were evaluated using a control and pheromone compositions. All horses were between 5 and 6 months of age and mixed breeds, primarily quarter horses. An ointment form of the composition comprising Androstenone was prepared in accordance with Table 7 for administering to the horses in this study.
An ointment composition containing a different pheromone, 2-methylbut-2-enal (RP, 1 mg/mL), was also prepared for administration in a comparison study. An ointment containing no pheromone was prepared and used as control (CON). In group A, 5 foals were used for the control treatment, 3 foals were used for the RP treatment, and 2 foals were used for the Androstenone treatment. In group B, 3 foals were used for the control treatment, 3 foals were used for the RP treatment, and 4 foals were used for the Androstenone treatment. As such, a total of 8 foals were used for the control treatment, 6 foals were used for the RP treatment, and 6 foals were used for the Androstenone treatment in this entire study. Both of the pheromone formulations and the control were applied to each nostril. Control treatments were administered first to prevent any cross contamination to horses during day two.
Behavioral observations were taken during the first 10 minutes (Group A and Group B) and then for four hours (Group B only) after the mares were separated from their foals. Foal behavior was recorded every minute during the first hour (or 10 minutes) and every 5 minutes for the remaining 3 hours of the study for Group B.
Behaviors were not mutually exclusive.
The number of shocks received by the electric fence (as foals tried to return to their mare) and vocalizations were recorded continuously. The total number of observations of each defined behaviors over the first 4 hours in Group B is presented in Table 9, which also provides the percentage of each behavior over the total number of recorded number of behaviors.

younger pigs = settings: cited from earlier work
[1] = Group 1, spray with noise, n=10
[2] = Group 1, spray with noise, n=10, listed as Pheromone
[3] = Group 2, no noise, n=3, listed as Pheromone
[4] = Group B, first 4 hours after weaning
[5] = Group B, first 4 hours after weaning, ointment in each nostril
[6] = first 10 minutes post weaning (n = 20)
[7] = first 10 minutes post weaning, Group A and Group B (n = 20)

C[C@]12CCC(=O)C[C@@H]1CC[C@@H]1[C@@H]2CC[C@]2(C)C=CC[C@@H]12 [Androstenone, 5-α-androst-16-en-3-one]
% Effective (no barking/jumping within 1 minute) (barking/jumping dogs; Group 2: loud spray plus Androstenone, aerosol diluted 1:1,000 in isopropyl alcohol, applied in facial/snout region): 100%
% Effective (no barking/jumping within 1 minute) (barking/jumping dogs; Group 3: placebo first, then Androstenone spray (re-spray of dogs not responding to placebo)): 83.5%
% Effective (no barking/jumping within 1 minute), overall Androstenone efficacy (barking/jumping dogs; all dogs that received the Androstenone spray (11 of 12 responded)): 91.7%
observed effect on barking/jumping (barking/jumping dogs; diluted Androstenone spray, dogs): immediate cessation of barking/jumping
time barking/jumping stopped before barking resumed (barking/jumping dogs; the one dog that did not respond by the 60 second criterion, after Androstenone spray): 40 s
effect on heart rate (anxious dogs): no significant effect
horses showing improvement, either fully or partially, in head shy behavior (head shy horses; [1]): 80%
Did not work (head shy horses; [1]): 20%
Partially worked (head shy horses; [1]): 20%
Worked well (head shy horses; [1]): 60%
Did not work (head shy horses; [2]): 20%
Partially worked (head shy horses; [2]): 20%
Worked well (head shy horses; [2]): 60%
Avg. Score (head shy horses; Group 1, spray with noise, n=10, score 1 (little to no effect) to 5 (easier to handle)): 3.9
horses showing improvement, either fully or partially, in head shy behavior (head shy horses; Group 2, no noise, n=3): 100%
Did not work (head shy horses; Group 2, no noise, n=3): 0%
Partially worked (head shy horses; Group 2, no noise, n=3): 33%
Worked well (head shy horses; Group 2, no noise, n=3): 66%
Partially worked (head shy horses; [3]): 33%
Worked well (head shy horses; [3]): 67%
Avg. Score (head shy horses; Group 2, spray with no noise, n=3, score 1 to 5): 3.9
reduction of head shaking compared to control ointment (weaning foals; 4 hour period after weaning): 100%
reduction of pacing compared to control ointment (weaning foals; 4 hour period after weaning): 100%
reduction of trotting/running compared to control ointment (weaning foals; 4 hour period after weaning): 100%
increase of feeding behavior compared to control (weaning foals; 4 hour period after weaning, % of observations eating hay): 98%
Percent of observations: defecation (weaning foals; [4]): 0.0%
Percent of observations: drink (weaning foals; [4]): 0.0%
Percent of observations: feeding (weaning foals; [4]): 11.3%
Percent of observations: fight (weaning foals; [4]): 0.0%
Percent of observations: head shake (weaning foals; [4]): 0.0%
Percent of observations: interact (weaning foals; [4]): 0.8%
Percent of observations: lying (weaning foals; [4]): 0.0%
Percent of observations: pace (weaning foals; [4]): 0.0%
Percent of observations: paw (weaning foals; [4]): 0.0%
Percent of observations: shock (weaning foals; [4]): 0.8%
Percent of observations: stand (weaning foals; [4]): 58.8%
Percent of observations: trot (weaning foals; [4]): 0%
Percent of observations: vocal (weaning foals; [4]): 19.0%
Percent of observations: walk (weaning foals; [4]): 9.2%
Total observations: defecation (weaning foals; [5]): 0
Total observations: drink (weaning foals; [5]): 0
Total observations: feeding (weaning foals; [5]): 27
Total observations: fight (weaning foals; [5]): 0
Total observations: head shake (weaning foals; [5]): 0
Total observations: interact (weaning foals; [5]): 2
Total observations: lying (weaning foals; [5]): 0
Total observations: pace (weaning foals; [5]): 0
Total observations: paw (weaning foals; [5]): 0
Total observations: shock (weaning foals; [5]): 2
Total observations: stand (weaning foals; [5]): 141
Total observations: trot (weaning foals; [5]): 0
Total observations: vocal (weaning foals; [5]): 46
Total observations: walk (weaning foals; [5]): 22
Percent of observations: trot (weaning foals; Group B, first 4 hours after weaning, listed as Pheromone A): 0.0%
Percent of observations: defecation (weaning foals; [6]): 0.0%
Percent of observations: drink (weaning foals; [6]): 0.0%
Percent of observations: eat (weaning foals; [6]): 0.0%
Percent of observations: fight (weaning foals; [6]): 0.0%
Percent of observations: head shake (weaning foals; [6]): 0.0%
Percent of observations: interact (weaning foals; [6]): 0.0%
Percent of observations: lying (weaning foals; [6]): 0.0%
Percent of observations: pace (weaning foals; [6]): 0.0%
Percent of observations: paw (weaning foals; [6]): 0.0%
Percent of observations: shock (weaning foals; [6]): 0.0%
Percent of observations: stand (weaning foals; [6]): 81.8%
Percent of observations: trot (weaning foals; [6]): 0.0%
Percent of observations: vocal (weaning foals; [6]): 37.1%
Percent of observations: walk (weaning foals; [6]): 18.2%
Total observations: defecation (weaning foals; [7]): 0
Total observations: drink (weaning foals; [7]): 0
Total observations: eat (weaning foals; [7]): 0
Total observations: fight (weaning foals; [7]): 0
Total observations: head shake (weaning foals; [7]): 0
Total observations: interact (weaning foals; [7]): 0
Total observations: lying (weaning foals; [7]): 0
Total observations: pace (weaning foals; [7]): 0
Total observations: paw (weaning foals; [7]): 0
Total observations: shock (weaning foals; [7]): 0
Total observations: stand (weaning foals; [7]): 18
Total observations: trot (weaning foals; [7]): 0
Total observations: vocal (weaning foals; [7]): 13
Total observations: walk (weaning foals; [7]): 4
effect on aggressive behavior (younger pigs): reduces aggressive behavior
